Reference: patent US11160282B2, “Use of a composition and method for reducing bacterial spores in pulp suspension” (Kemira Oyj, priority 2016, dated 2021)

What was measured:
Assay type in all cases: cell-based
total aerobes = assay: Example 4 (reference): laboratory test, broke sample, total aerobes count; conditions: broke 1.0% consistency, pH 7.8, ORP +146 mV; 10 ppm active chlorine, 1 day contact time; untreated 650 000 cfu/ml
Method: (§1) This laboratory test was performed in order to test killing effect of sodium hypochlorite against total aerobes and aerobic spores in broke sample (consistency 1.0%, pH 7.8, ORP +146 mV) taken from an alkaline board machine, which produces 3-ply food packaging board. Total aerobes and aerobic spore counts were quantitated by using plate count agar (+45° C./+37° C., 2 days incubation). Prior to the bacterial spore determination, samples were pasteurized at +80° C. for 20 min.

aerobic spores [1] = assay: Example 4 (reference): laboratory test, broke sample, aerobic spore count; conditions: broke 1.0% consistency, pH 7.8, ORP +146 mV; 10 ppm active chlorine, 1 day contact time; untreated 70 cfu/ml
Method: as §1

aerobic spores [2] = assay: Example 5: pilot paper machine test, aerobic spores in dry paper (ISO 8784-1); conditions: glutaraldehyde alone, 50 ppm as active agent, 5 min post-treatment of pulp suspension (reference paper)
Method: This test was performed in a pilot paper machine producing 1-ply paper. Aim of the test was to verify efficacy of the invention to provide a low quantity of aerobic bacteria and aerobic bacterial spores in dry paper end-product. Composition 1-5 comprising 40 weight-% of dodecylamine, 40 weight-% of dipropylene glycol and 20 weight-% of water was used according to the invention. It was dosed as 100, 150 or 300 mg/l into pulp suspension with 2.25% consistency. The pulp suspension was then mixed 120 rpm for 30 min at +40° C. The pulp suspension was made from a batch of authentic, spore-contaminated folding-box board with average spore content of 7000 cfu/gram of dry board. All pulp suspensions in the pilot paper machine were also post-treated (5 min, 120 rpm) with glutaraldehyde (dose: 50 ppm as active agent) in order to maintain control of vegetative bacterial cells in the pilot machine. Total aerobic bacteria (without pasteurization) and aerobic spores (with pasteurization step at +82° C. for 10 min) were quantified from the dry paper end product according to the ISO 8784-1 standard for microbiological examination of paper and board.

Row | SMILES | total aerobes (total aerobes) | aerobic spores (aerobic spores [1]) [cfu/ml] | effect on spore contamination in the produced paper (aerobic spores [2])
1 | OCl [Sodium hypochlorite, sodium hypochlorite] | 390 000 cfu/ml | 60 | 
2 | O=CCCCC=O [glutaraldehyde] |  |  | not alone capable to lower spore contamination
